Consider five molecules from paper PMC8875555, “Discovery of Kinase and Carbonic Anhydrase Dual Inhibitors by Machine Learning Classification and Experiments” (Pharmaceuticals, 2022).

Experiment [1] deals with T1, CA I (Homo sapiens, UniProt P00915). The experiment in a line: CA enzyme inhibition with 4-nitrophenyl acetate as substrate. It is filed as biochemical. The conditions noted are these: converted from IC50 by Cheng-Prusoff; 5 nM enzyme, 1 mM substrate, 0.01% Triton X-100, 37 °C. As to the method: (§1) All the reagents used for the biochemical experiments for enzyme inhibitions were bought from Cayman (Ann Harbor, MI, USA), Sigma–Aldrich (St. Louis, MO, USA), Sino Biological (Beijing, China), or Tokyo Chemical Industry (Tokyo, Japan). Inhibitory activities of small molecules on CAs were measured using 4-nitrophenyl acetate as a substrate. […] The changes were measured at 96-well microplates using Epoch2 from BioTek (Winooski, VT, USA). The slope in a time-dependent measurement was calculated by linear regression and interpreted as the quantified activity. Each 200 μL reaction solution comprised 5 nM enzyme and 1 mM substrate buffered using phosphate-buffered saline containing 5% dimethyl sulfoxide and 0.01% (w/v) Triton X-100 under the absence or the presence of inhibitor. […] The substrate-only solution was used as a control to consider autohydrolysis of the substrate. The value of IC50 was converted into Ki using the Cheng–Prusoff equation [66].
T1 sequence (P00915 whole entry): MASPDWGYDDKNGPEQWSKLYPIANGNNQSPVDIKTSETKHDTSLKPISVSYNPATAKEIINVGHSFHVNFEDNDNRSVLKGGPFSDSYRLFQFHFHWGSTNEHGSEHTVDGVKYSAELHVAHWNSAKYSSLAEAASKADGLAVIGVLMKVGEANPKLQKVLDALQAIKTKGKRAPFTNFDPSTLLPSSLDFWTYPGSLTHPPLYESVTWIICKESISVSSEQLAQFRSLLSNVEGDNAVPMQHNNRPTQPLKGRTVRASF

Experiment [2] addresses T2, CA II (Homo sapiens, UniProt P00918). The experiment is described as above. It is filed as biochemical. Particulars: converted from IC50 by Cheng-Prusoff; 5 nM enzyme, 1 mM substrate, 0.01% Triton X-100, 37 °C. On the procedure: as §1
A further experiment has as its target CA IX (Homo sapiens, UniProt Q16790). The description is as above. Type of experiment: biochemical. Particulars: converted from IC50 by Cheng-Prusoff; 5 nM enzyme, 1 mM substrate, 0.01% Triton X-100, 37 °C. As to the method:
as §1

The target of the next experiment is CA XII (Homo sapiens, UniProt O43570). Described as above. Type of experiment: biochemical. On the procedure: as §1
Sequence of CA XII (O43570 25-354): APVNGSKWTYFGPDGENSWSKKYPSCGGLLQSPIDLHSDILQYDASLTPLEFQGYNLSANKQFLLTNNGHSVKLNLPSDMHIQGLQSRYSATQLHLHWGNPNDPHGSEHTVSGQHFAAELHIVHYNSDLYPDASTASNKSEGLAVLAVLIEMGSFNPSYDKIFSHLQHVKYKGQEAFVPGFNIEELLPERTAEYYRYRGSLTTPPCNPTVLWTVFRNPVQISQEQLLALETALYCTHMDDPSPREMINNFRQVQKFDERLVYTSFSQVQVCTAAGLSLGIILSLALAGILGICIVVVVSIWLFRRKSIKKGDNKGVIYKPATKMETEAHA
Experiment [3] deals with T1, CA I. As to the kind of experiment: Differential scanning fluorimetry (DSF). The conditions noted are these: 200 µM inhibitor; for CA I ΔTm: shift from apo CA I. It is filed as binding. On the procedure: (§2) The biophysical experiments involved the binding of small molecules to CA I or CA II, which were quantified using the Tm of DSF. The profile was generated by CFX-connect […] (BioRad, Hercules, CA, USA). The solution contained 5× SYPRO® Orange and 0.5 µM recombinant human CA I or CA II in the absence or presence of 200 µM inhibitor. […] The patterns were nonlinearly fitted to the Boltzmann equation to calculate Tm. […] Nonlinear curve fittings for Ki in enzyme assay and Tm in DSF were performed using MATLAB (MathWorks, Natick, MA, USA).
(In DSF a fluorescence change marks the thermal transition of the protein.)

In experiment [4] the target is T2, CA II. As to the kind of experiment: Differential scanning fluorimetry (DSF). The conditions noted are these: 200 µM inhibitor; for CA II ΔTm: shift from apo CA II. It is filed as binding. As to the method:
as §2

For another experiment, the system named is CDK2. Further details: method as in PMID 15974571. Particulars: cited from earlier work.
The test system of the next experiment is SYK. The arrangement: method as in PMID 12941345. Particulars: cited from earlier work.
In another experiment the test system is MST1. The arrangement: method as in PMID 27535619. The conditions noted are these: cited from earlier work.
The next experiment deals with MST2. Further details: method as in PMID 27535619. Particulars: cited from earlier work.

Values joined by “and” are separate entries in the source; they are usually repeats but may differ in a detail not shown here. Equal values may be shown once.

What is called Ki is the equilibrium dissociation constant of an inhibitor or competing ligand from its target. A higher Ki goes with a looser hold on the target. As to `Cc1ccc(Nc2nccc(N(C)c3ccc4c(C)n(C)nc4c3)n2)cc1S(N)(=O)=O` [Compound 5698, pazopanib], the Ki at CA I [1] was 67 ± 10 nM; on CA II [2], 242 ± 32 nM; at CA IX, 1700 ± 500 nM; on CA XII, 800 ± 300 nM.
For orientation: IC50 means the concentration at which inhibition is half-maximal. Take `Nc1nc(Nc2ccc(S(N)(=O)=O)cc2)nn1C(=O)c1c(F)cccc1F` [Compound 5932, JNJ-7706621]: the “CA I ΔTm” value at CA I [3] turned out to be […]. Also, on CA II [4], the “CA II ΔTm” value is listed as […]. The Ki was determined as 207 ± 66 nM at CA I [1], […] at CA II [2], 220 ± 32 nM on CA IX and […] on CA XII. The half-maximal inhibitory concentration (IC50) with CDK2 was […].
With `Nc1nc(Nc2ccc(S(N)(=O)=O)cc2)nn1C(=S)Nc1c(F)cccc1F` [Compound 5946, CDK1/2 inhibitor III], the “CA II ΔTm” value at CA II [4] is listed as 3.2 degrees. The inhibition constant (Ki) was determined as 258 ± 58 nM at CA I [1], 149 ± 21 nM on CA II [2], 100 ± 28 nM on CA IX and 254 ± 40 nM on CA XII. In addition, the IC50 with CDK2 is 0.5 nM.
Regarding `Cn1cc(/C=C2\C(=O)Nc3ccc(S(N)(=O)=O)cc32)c2ccccc21` [Compound 6046], the IC50 in the experiment with SYK was […]. In addition, the “CA I ΔTm” value at CA I [3] was determined as 0.1 degrees. Moreover, on CA II [4], the “CA II ΔTm” value is 0.2 degrees. Besides, the Ki on CA I [1] worked out at 60000 ± 9000 nM; at CA II [2], 16000 ± 5000 nM; at CA IX, 2700 ± 300 nM; at CA XII it was 13000 ± 4000 nM.
For `CN1C(=O)c2sccc2N(C)c2nc(Nc3ccc(S(N)(=O)=O)cc3)ncc21` [XMU-MP-1], the IC50 is 71 nM with MST1 and 31 nM with MST2. Also, the “CA I Tm” value at CA I [3] (0.5 µM CA I, enzyme alone 56.2 ± 0.1) is 61.9±0.2 °C. Further, the “CA I ΔTm” value on CA I [3] turned out to be 5.7 degrees. On CA II [4] (0.5 µM CA II, enzyme alone 52.6 ± 0.2), the “CA II Tm” value stood at 59.9±0.2 °C. On CA II [4], the “CA II ΔTm” value was 7.3 degrees. For the same molecule, the Ki is ~30 nM and 32 nM at CA I [1]; ~30 nM and 24 nM at CA II [2]; ~30 nM and 31 nM at CA IX; 1000 nM on CA XII. Further, the “weaker in inhibiting CA XII” value on CA XII (compared with CA I, CA II and CA IX) is recorded as “approximately 30 fold”.
